Active and inactive are the calls of the source.
Columns and labels:
HCC1806 [1] = test: Upregulation of Rab7 level in human HCC1806 cells at 1.5 uM incubated for 24 hrs by immunofluorescence microscopy; assay type: functional, cell-based
MDA-MB-468 [2] = test: Induction of morphological changes in human MDA-MB-468 cells assessed as intracellular vacuolization at 1 uM measured after 24 hrs in presence of 3-MA by microscopic analysis; assay type: functional, cell-based
HCC1806 [3] = test: Antiproliferative activity against human HCC1806 cells assessed as inhibition of cell proliferation at 1 uM incubated for 24 hrs by SRB assay relative to control; assay type: functional
[4] = Toxicity in mouse xenografted with human HCC1806 cells assessed as body weight change at 2.5 to 5 mg/kg, ip administered every 2 days for 15 days; assay type: organism-based; details: in vivo, 360 h, dose 2.5-5 mg/kg, time 15 day
MDA-MB-468 [5] = test: Induction of morphological changes in human MDA-MB-468 cells assessed as intracellular vacuolization at 1 uM incubated for 24 hrs by microscopic analysis; assay type: functional, cell-based
MDA-MB-468 [6] = test: Upregulation of Rab7 level in human […] cells incubated for 24 hrs by Western blot analysis; assay type: functional, cell-based; details: dose <= 1.5 µM
HCC1806 [7] = test: Antiproliferative activity against human HCC1806 cells assessed as inhibition of cell proliferation at 1 uM pretreated with Z-VAD-FMK followed by compound addition measured after 24 hrs by SRB assay; assay type: functional, cell-based
[8] = Toxicity in mouse xenografted with human HCC1806 cells assessed as effect on CR level at 2.5 to 5 mg/kg, ip administered every 2 days for 15 days; assay type: organism-based; details: in vivo, 360 h, dose 2.5-5 mg/kg, time 15 day
HCC1806 [9] = test: Upregulation of LC3-II level in human HCC1806 cells incubated for 24 hrs by Western blot analysis; assay type: functional, cell-based; details: dose <= 1.5 µM
[10] = Toxicity in mouse xenografted with human HCC1806 cells assessed as effect on ALT level at 2.5 to 5 mg/kg, ip administered every 2 days for 15 days; assay type: organism-based; details: in vivo, 360 h, dose 2.5-5 mg/kg, time 15 day
HCC1806 [11] = test: Induction of morphological changes in human HCC1806 cells assessed as intracellular vacuolization at 0.5 uM incubated for 24 hrs by microscopic analysis; assay type: functional, cell-based
MDA-MB-468 [12] = test: Antiproliferative activity against human MDA-MB-468 cells assessed as inhibition of cell proliferation at 1 uM measured after 24 hrs in presence of 3-MA by SRB assay; assay type: functional, cell-based
HCC1806 [13] = test: Upregulation of Lamp1 level in human HCC1806 cells incubated for 24 hrs by Western blot analysis; assay type: functional, cell-based; details: dose <= 1.5 µM
HCC1806 [14] = test: Antiproliferative activity against human HCC1806 cells assessed as inhibition of cell proliferation at 1.5 uM pretreated with Baf-A1 followed by compound addition measured after 24 hrs by SRB assay; assay type: functional, cell-based
HCC1806 [15] = test: Upregulation of p62 level in human HCC1806 cells incubated for 24 hrs by Western blot analysis; assay type: functional, cell-based; details: dose <= 1.5 µM
HCC1806 [16] = test: Induction of morphological changes in human HCC1806 cells assessed as intracellular vacuolization incubated for 24 hrs by microscopic analysis; assay type: functional, cell-based; details: dose 0.5-1.5 µM
184B5 [17] = test: Induction of morphological changes in human 184B5 cells assessed as intracellular vacuolization upto 2 uM incubated for 24 hrs by microscopic analysis; assay type: toxicity, cell-based; details: 184b5, 24 h
HCC1806 [18] = test: Antiproliferative activity against human HCC1806 cells assessed as inhibition of cell proliferation at 1 uM measured after 24 hrs in presence of 3-MA by SRB assay; assay type: functional, cell-based
MDA-MB-468 [19] = test: Upregulation of Lamp1 level in human MDA-MB-468 cells at 1.5 uM incubated for 24 hrs by immunofluorescence microscopy; assay type: functional, cell-based
MDA-MB-468 [20] = test: Induction of macropinocytosis in human MDA-MB-468 cells at 1.5 uM incubated for 24 hrs by LY staining based live cell imaging analysis; assay type: functional
HCC1806 [21] = test: Upregulation of Lamp1 level in human HCC1806 cells at 1.5 uM incubated for 24 hrs by immunofluorescence microscopy; assay type: functional, cell-based
HCC1806 [22] = test: Upregulation of Rab7 level in human HCC1806 cells incubated for 24 hrs by Western blot analysis; assay type: functional, cell-based; details: dose <= 1.5 µM
[23] = Toxicity in mouse xenografted with human HCC1806 cells assessed as effect on AST level at 2.5 to 5 mg/kg, ip administered every 2 days for 15 days; assay type: organism-based; details: in vivo, 360 h, dose 2.5-5 mg/kg, time 15 day
HCC1806 [24] = test: Antiproliferative activity against human HCC1806 cells assessed as inhibition of cell proliferation incubated for 24 hrs by SRB assay; assay type: functional, cell-based; details: HCC1806, 24 h
MDA-MB-468 [25] = test: Antiproliferative activity against human MDA-MB-468 cells assessed as inhibition of cell proliferation incubated for 24 hrs by SRB assay; assay type: functional, cell-based; details: MDA-MB-468, 24 h
HCC1806 [26] = test: Antitumor activity against human HCC1806 cells xenografted in mouse assessed as tumor growth inhibition at 2.5 to 5 mg/kg, ip administered every 2 days for 15 days; assay type: functional, organism-based; details: dose 2.5-5 mg/kg, time 15.0 day
HCC1806 [27] = test: Induction of macropinocytosis in human HCC1806 cells at 1.5 uM incubated for 24 hrs by LY staining based live cell imaging analysis; assay type: functional
184B5 [28] = test: Cytotoxicity against human 184B5 cells assessed as reduction in cell viability at 2 uM incubated for 24 hrs by SRB assay; assay type: toxicity, cell-based; details: 184b5, 24 h
MDA-MB-468 [29] = test: Induction of morphological changes in human MDA-MB-468 cells assessed as intracellular vacuolization at 1.5 uM pretreated with Baf-A1 followed by compound addition measured after 24 hrs by microscopic analysis; assay type: functional, cell-based
MDA-MB-468 [30] = test: Antiproliferative activity against human MDA-MB-468 cells assessed as inhibition of cell proliferation at 1 uM pretreated with Z-VAD-FMK followed by compound addition measured after 24 hrs by SRB assay; assay type: functional, cell-based
[31] = Toxicity in mouse xenografted with human HCC1806 cells assessed as drug tolerance at 2.5 to 5 mg/kg, ip administered every 2 days for 15 days; assay type: organism-based; details: in vivo, 360 h, dose 2.5-5 mg/kg, time 15 day
MDA-MB-468 [32] = test: Upregulation of Rab7 level in human MDA-MB-468 cells at 1.5 uM incubated for 24 hrs by immunofluorescence microscopy; assay type: functional, cell-based
HCC1806 [33] = test: Induction of morphological changes in human HCC1806 cells assessed as intracellular vacuolization at 1.5 uM pretreated with Baf-A1 followed by compound addition measured after 24 hrs by microscopic analysis; assay type: functional, cell-based
HCC1806 [34] = test: Antiproliferative activity against human HCC1806 cells assessed as inhibition of cell proliferation at 2 uM incubated for 24 hrs by SRB assay relative to control; assay type: functional
HCC1806 [35] = test: Induction of morphological changes in human HCC1806 cells assessed as intracellular vacuolization at 1.5 uM measured after 12 to 24 hrs by microscopic analysis; assay type: functional, cell-based; details: time 12-24 hrs
MDA-MB-468 [36] = test: Upregulation of Lamp1 level in human MDA-MB-468 cells incubated for 24 hrs by Western blot analysis; assay type: functional, cell-based; details: dose <= 1.5 µM
HCC1806 [37] = test: Induction of morphological changes in human HCC1806 cells assessed as intracellular vacuolization at 1 uM measured after 24 hrs in presence of 3-MA by microscopic analysis; assay type: functional, cell-based
MDA-MB-468 [38] = test: Induction of morphological changes in human MDA-MB-468 cells assessed as intracellular vacuolization incubated for 24 hrs by microscopic analysis; assay type: functional, cell-based; details: dose 0.5-1.5 µM
MDA-MB-468 [39] = test: Antiproliferative activity against human MDA-MB-468 cells assessed as inhibition of cell proliferation at 1.5 uM pretreated with Baf-A1 followed by compound addition measured after 24 hrs by SRB assay; assay type: functional, cell-based
HCC1937 = test: Antiproliferative activity against human HCC1937 cells assessed as inhibition of cell proliferation incubated for 24 hrs by SRB assay; assay type: functional, cell-based; details: HCC1937, 24 h
HCC1806 [40] = test: Induction of morphological changes in human HCC1806 cells assessed as rate of intracellular vacuolization at 1 uM incubated for 24 hrs by microscopic analysis relative to control; assay type: functional
MDA-MB-468 [41] = test: Induction of morphological changes in human MDA-MB-468 cells assessed as intracellular vacuolization at 0.5 uM incubated for 24 hrs by microscopic analysis; assay type: functional, cell-based
MDA-MB-468 [42] = test: Induction of morphological changes in human MDA-MB-468 cells assessed as intracellular vacuolization at 1 uM pretreated with Z-VAD-FMK followed by compound addition measured after 24 hrs by microscopic analysis; assay type: functional, cell-based
HCC1806 [43] = test: Induction of morphological changes in human HCC1806 cells assessed as intracellular vacuolization at 1 uM pretreated with Z-VAD-FMK followed by compound addition measured after 24 hrs by microscopic analysis; assay type: functional, cell-based

COc1cc(Nc2nc(N3CCNCC3)ncc2SC)ccc1NC(=O)c1cccc(Br)n1
920 nM: IC50 (MDA-MB-468 [25])
Non-Toxic: Activity [4] | Activity [8] | Activity [10] | Activity (184B5 [17]) | Activity [23] | Activity [31]
inactive: Activity (HCC1806 [14]) | Activity (MDA-MB-468 [29]) | Activity (HCC1806 [33]) | Activity (MDA-MB-468 [39])
Toxic: Activity (184B5 [28])
700 nM: IC50 (HCC1806 [24])
1030 nM: IC50 (HCC1937)
78.3%: Activity (HCC1806 [40])
active: Activity (HCC1806 [1]) | Activity (MDA-MB-468 [2]) | Activity (MDA-MB-468 [5]) | Activity (MDA-MB-468 [6]) Dose-Dependent Effect | Activity (HCC1806 [7]) | Activity (HCC1806 [9]) Dose-Dependent Effect | Activity (HCC1806 [11]) | Activity (MDA-MB-468 [12]) | Activity (HCC1806 [13]) Dose-Dependent Effect | Activity (HCC1806 [15]) Dose-Dependent Effect | Activity (HCC1806 [16]) Dose-Dependent Effect | Activity (HCC1806 [18]) | Activity (MDA-MB-468 [19]) | Activity (MDA-MB-468 [20]) | Activity (HCC1806 [21]) | Activity (HCC1806 [22]) Dose-Dependent Effect | Activity (HCC1806 [26]) | Activity (HCC1806 [27]) | Activity (MDA-MB-468 [30]) | Activity (MDA-MB-468 [32]) | Activity (HCC1806 [35]) | Activity (MDA-MB-468 [36]) Dose-Dependent Effect | Activity (HCC1806 [37]) | Activity (MDA-MB-468 [38]) Dose-Dependent Effect | Activity (MDA-MB-468 [41]) | Activity (MDA-MB-468 [42]) | Activity (HCC1806 [43])
7.07%: inhibition at 2 µM (HCC1806 [34])
99.5%: inhibition at 1 µM (HCC1806 [3])

From ChEMBL document CHEMBL5338793, “Discovery of Pyrimidinediamine Derivatives as Potent Methuosis Inducers for the Treatment of Triple-Negative Breast Cancer” (J Med Chem, 2023)
